According to article PMC5218480 (PLoS ONE, 2017):

System: MV-4-11 cells
Experiment: Gene expression microarray analysis (Affymetrix PrimeView) and GSEA
Assay type: cell-based, human
Parameters: RFU PODN (11730768_x_at) / Fold change /veh PODN (11730768_x_at) / RFU LINC00158 (11744669_a_at) / Fold change /veh LINC00158 (11744669_a_at) / RFU DUSP10 (11751237_a_at) / Fold change /veh DUSP10 (11751237_a_at) / RFU ID3 (11757404_x_at) / Fold change /veh ID3 (11757404_x_at) / RFU PLEKHG5 (11737974_s_at) / Fold change /veh PLEKHG5 (11737974_s_at) / RFU LRRC4B (11730491_at) / Fold change /veh LRRC4B (11730491_at) / RFU GIMAP4 (11747438_a_at) / Fold change /veh GIMAP4 (11747438_a_at) / RFU KRT8 (11758183_x_at) / Fold change /veh KRT8 (11758183_x_at) / RFU CNN1 (11734310_a_at) / Fold change /veh CNN1 (11734310_a_at) / RFU VPS37D (11726825_at) / Fold change /veh VPS37D (11726825_at) / RFU C10orf10 (11716522_x_at) / Fold change /veh C10orf10 (11716522_x_at) / RFU KIR2DL2 /// KIR2DL4 /// KIR2DL5A /// KIR2DL5B /// KIR2DS1 /// KIR2DS2 /// KIR2DS3 /// KIR2DS4 /// KIR3DL3 /// KIR3DL3 /// KIR3DS1 (11738374_at) / Fold change /veh KIR2DL2 /// KIR2DL4 /// KIR2DL5A /// KIR2DL5B /// KIR2DS1 /// KIR2DS2 /// KIR2DS3 /// KIR2DS4 /// KIR3DL3 /// KIR3DL3 /// KIR3DS1 (11738374_at) / RFU C1QL1 (11718748_at) / Fold change /veh C1QL1 (11718748_at) / RFU TMPRSS4 (11747572_a_at) / Fold change /veh TMPRSS4 (11747572_a_at) / RFU HAMP (11756126_x_at) / Fold change /veh HAMP (11756126_x_at) / RFU RNFT2 (11725882_a_at) / Fold change /veh RNFT2 (11725882_a_at) / RFU NR4A2 (11747474_a_at) / Fold change /veh NR4A2 (11747474_a_at) / RFU ABCC12 (11746883_a_at) / Fold change /veh ABCC12 (11746883_a_at) / RFU TMEM136 (11760407_x_at) / Fold change /veh TMEM136 (11760407_x_at) / RFU CLDN22 /// WWC2 (11732394_at) / Fold change /veh CLDN22 /// WWC2 (11732394_at) / RFU HLA-DPB1 (11760878_x_at) / Fold change /veh HLA-DPB1 (11760878_x_at) / RFU SPINT1 (11716480_a_at) / Fold change /veh SPINT1 (11716480_a_at) / RFU GAP43 (11754022_s_at) / Fold change /veh GAP43 (11754022_s_at) / RFU A4GNT (11735810_at) / Fold change /veh A4GNT (11735810_at) / RFU PRB3 (11715151_x_at) / Fold change /veh PRB3 (11715151_x_at) / RFU TUBB4B (11761932_at) / Fold change /veh TUBB4B (11761932_at) / RFU CAPN14 (11732068_a_at) / Fold change /veh CAPN14 (11732068_a_at) / RFU TMCC2 (11721928_a_at) / Fold change /veh TMCC2 (11721928_a_at) / RFU IRGQ (11745062_a_at) / Fold change /veh IRGQ (11745062_a_at) / RFU FAM174B (11720279_a_at) / Fold change /veh FAM174B (11720279_a_at) / RFU TMPRSS4 (11748680_a_at) / Fold change /veh TMPRSS4 (11748680_a_at) / RFU FAM212B (11763350_a_at) / Fold change /veh FAM212B (11763350_a_at) / RFU PLEKHG5 (11743358_a_at) / Fold change /veh PLEKHG5 (11743358_a_at) / RFU ZSCAN30 (11745921_a_at) / Fold change /veh ZSCAN30 (11745921_a_at) / RFU CMKLR1 (11741424_a_at) / Fold change /veh CMKLR1 (11741424_a_at) / RFU LOC101060620 /// MAPK8IP1 (11723275_at) / Fold change /veh LOC101060620 /// MAPK8IP1 (11723275_at) / RFU SPTSSB (11747773_x_at) / Fold change /veh SPTSSB (11747773_x_at) / RFU PRSS12 (11739890_at) / Fold change /veh PRSS12 (11739890_at) / RFU BIN1 (11741810_x_at) / Fold change /veh BIN1 (11741810_x_at) / RFU WNT11 (11732464_a_at) / Fold change /veh WNT11 (11732464_a_at) / RFU C10orf10 (11716521_a_at) / Fold change /veh C10orf10 (11716521_a_at) / RFU C5orf56 (11738089_at) / Fold change /veh C5orf56 (11738089_at) / RFU CYB561 (11721691_x_at) / Fold change /veh CYB561 (11721691_x_at) / RFU ANKRD19P (11752326_a_at) / Fold change /veh ANKRD19P (11752326_a_at) / RFU OR2T12 /// OR2T33 /// OR2T8 (11738714_s_at) / Fold change /veh OR2T12 /// OR2T33 /// OR2T8 (11738714_s_at) / RFU VCAN (11748164_a_at) / Fold change /veh VCAN (11748164_a_at) / RFU JSRP1 (11732532_at) / Fold change /veh JSRP1 (11732532_at) / RFU KRTAP10-11 (11738290_x_at) / Fold change /veh KRTAP10-11 (11738290_x_at) / RFU MYO3A (11730013_a_at) / Fold change /veh MYO3A (11730013_a_at) / RFU EBF3 (11725865_a_at) / Fold change /veh EBF3 (11725865_a_at) / RFU CAMK2N1 (11719241_x_at) / Fold change /veh CAMK2N1 (11719241_x_at) / RFU C5orf56 (11738088_a_at) / Fold change /veh C5orf56 (11738088_a_at) / RFU OLFML3 (11715873_a_at) / Fold change /veh OLFML3 (11715873_a_at) / RFU LOC100653217 /// NTM (11731650_a_at) / Fold change /veh LOC100653217 /// NTM (11731650_a_at) / RFU MAPK11 (11762145_a_at) / Fold change /veh MAPK11 (11762145_a_at) / RFU FIZ1 (11724087_x_at) / Fold change /veh FIZ1 (11724087_x_at) / RFU OASL (11726364_x_at) / Fold change /veh OASL (11726364_x_at) / RFU SOX15 (11748057_x_at) / Fold change /veh SOX15 (11748057_x_at) / RFU CD79A (11719716_a_at) / Fold change /veh CD79A (11719716_a_at) / RFU HIST1H1D (11736915_at) / Fold change /veh HIST1H1D (11736915_at) / RFU CASKIN2 (11723855_a_at) / Fold change /veh CASKIN2 (11723855_a_at) / RFU LOC730098 (11760151_x_at) / Fold change /veh LOC730098 (11760151_x_at) / RFU OR4N2 (11742367_at) / Fold change /veh OR4N2 (11742367_at) / RFU PRRT2 (11749266_a_at) / Fold change /veh PRRT2 (11749266_a_at) / RFU SNX32 (11753110_a_at) / Fold change /veh SNX32 (11753110_a_at) / RFU CDHR5 (11726645_a_at) / Fold change /veh CDHR5 (11726645_a_at) / RFU RCAN1 (11760418_a_at) / Fold change /veh RCAN1 (11760418_a_at) / RFU FAM167A (11723789_a_at) / Fold change /veh FAM167A (11723789_a_at) / RFU FAM26E (11764081_at) / Fold change /veh FAM26E (11764081_at) / RFU ISYNA1 (11749810_s_at) / Fold change /veh ISYNA1 (11749810_s_at) / RFU ACY1 (11761880_at) / Fold change /veh ACY1 (11761880_at) / RFU 11764098_at / Fold change /veh 11764098_at / RFU SAMD14 (11745864_x_at) / Fold change /veh SAMD14 (11745864_x_at) / RFU NPB (11741838_a_at) / Fold change /veh NPB (11741838_a_at) / RFU TMPRSS6 (11731388_a_at) / Fold change /veh TMPRSS6 (11731388_a_at) / RFU KRTAP10-2 (11738614_at) / Fold change /veh KRTAP10-2 (11738614_at) / RFU ARHGAP8 /// PRR5-ARHGAP8 (11727945_x_at) / Fold change /veh ARHGAP8 /// PRR5-ARHGAP8 (11727945_x_at) / RFU KRTAP5-7 /// NADSYN1 (11734609_at) / Fold change /veh KRTAP5-7 /// NADSYN1 (11734609_at) / RFU RASL12 (11751679_a_at) / Fold change /veh RASL12 (11751679_a_at) / RFU CDKN2B (11736163_a_at) / Fold change /veh CDKN2B (11736163_a_at) / RFU PRF1 (11729649_at) / Fold change /veh PRF1 (11729649_at) / RFU, ZNF638 /// ZNF638-IT1 / Fold change vs veh, ZNF638 /// ZNF638-IT1 / RFU, PANK3 / Fold change vs veh, PANK3 / RFU, SH3YL1 / Fold change vs veh, SH3YL1 / RFU, ZEB2 / Fold change vs veh, ZEB2 / RFU, NRIP1 / Fold change vs veh, NRIP1 / RFU, PTTG1IP / Fold change vs veh, PTTG1IP / RFU, CAPN2 / Fold change vs veh, CAPN2 / RFU, MED14 / Fold change vs veh, MED14 / RFU, SNORA58 / Fold change vs veh, SNORA58 / RFU, C1orf63 / Fold change vs veh, C1orf63 / RFU, LRRFIP1 / Fold change vs veh, LRRFIP1 / RFU, NDUFAF7 / Fold change vs veh, NDUFAF7 / RFU, SLC12A2 / Fold change vs veh, SLC12A2 / RFU, IBTK / Fold change vs veh, IBTK / RFU, ESF1 / Fold change vs veh, ESF1 / Fold change vs veh, TMEM50B / RFU, TAOK1 / Fold change vs veh, TAOK1 / RFU, ACBD3 / Fold change vs veh, ACBD3 / RFU, TMA16 / Fold change vs veh, TMA16 / RFU, RWDD3 / Fold change vs veh, RWDD3 / RFU, BCAT1 / Fold change vs veh, BCAT1 / RFU, EDEM3 / Fold change vs veh, EDEM3 / RFU, TMEM33 / Fold change vs veh, TMEM33 / RFU, WDR75 / Fold change vs veh, WDR75 / RFU, AHCTF1 / Fold change vs veh, AHCTF1 / RFU, TFRC / Fold change vs veh, TFRC / RFU, ZDHHC17 / Fold change vs veh, ZDHHC17 / RFU, NOM1 / Fold change vs veh, NOM1 / RFU, ARL8B / Fold change vs veh, ARL8B / RFU, ZBTB11 / Fold change vs veh, ZBTB11 / RFU, TAMM41 / Fold change vs veh, TAMM41 / RFU, KIAA1704 /// LOC100996395 / Fold change vs veh, KIAA1704 /// LOC100996395 / RFU, ING1 / Fold change vs veh, ING1 / RFU, TRMT61B / Fold change vs veh, TRMT61B / RFU, FUBP3 / Fold change vs veh, FUBP3 / RFU, TP53 / Fold change vs veh, TP53 / RFU, TNKS2 / Fold change vs veh, TNKS2 / RFU, ZFP14 / Fold change vs veh, ZFP14 / RFU, ACTR2 / Fold change vs veh, ACTR2 / RFU, PPP3R1 / Fold change vs veh, PPP3R1 / RFU, PIK3R1 / Fold change vs veh, PIK3R1 / RFU, HNRNPA1 / Fold change vs veh, HNRNPA1 / RFU, RNF170 / Fold change vs veh, RNF170 / RFU, ZNF28 / Fold change vs veh, ZNF28 / RFU, RNGTT / Fold change vs veh, RNGTT / RFU, OGT / Fold change vs veh, OGT / RFU, BRD1 / Fold change vs veh, BRD1 / RFU, MARS / Fold change vs veh, MARS / RFU, ZNF655 / Fold change vs veh, ZNF655 / RFU, FAHD1 / Fold change vs veh, FAHD1 / RFU, BDP1 / Fold change vs veh, BDP1 / RFU, LRRCC1 / Fold change vs veh, LRRCC1 / RFU, ARID1A / Fold change vs veh, ARID1A / RFU, ZNF146 / Fold change vs veh, ZNF146 / RFU, ZNF330 / Fold change vs veh, ZNF330 / RFU, GPN3 / Fold change vs veh, GPN3 / RFU, C9orf123 / Fold change vs veh, C9orf123 / RFU, N4BP2L2 / Fold change vs veh, N4BP2L2 / RFU, ARFIP1 / Fold change vs veh, ARFIP1 / RFU, FAM179B / Fold change vs veh, FAM179B / RFU, BCL10 / Fold change vs veh, BCL10 / RFU, UHRF1BP1L / Fold change vs veh, UHRF1BP1L / RFU, BET1 / Fold change vs veh, BET1 / RFU, CNOT2 / Fold change vs veh, CNOT2 / RFU, ZNF268 / Fold change vs veh, ZNF268 / Fold change vs veh, ZNF507 / RFU, DGCR2 / Fold change vs veh, DGCR2 / RFU, WDSUB1 / Fold change vs veh, WDSUB1 / Fold change vs veh, HSP90B1 /// MIR3652 / RFU, ADSS / Fold change vs veh, ADSS / RFU, GK / Fold change vs veh, GK / RFU, ZNF148 / Fold change vs veh, ZNF148 / RFU, TAF9 / Fold change vs veh, TAF9 / RFU, SLC1A5 / Fold change vs veh, SLC1A5 / RFU, SLMO2 / Fold change vs veh, SLMO2 / RFU, ABCC4 / Fold change vs veh, ABCC4 / RFU, LOC101060439 /// RAP1B / Fold change vs veh, LOC101060439 /// RAP1B / RFU, RFX7 / Fold change vs veh, RFX7 / RFU, GTPBP10 / Fold change vs veh, GTPBP10 / RFU, CNEP1R1 / Fold change vs veh, CNEP1R1 / RFU, BIVM-ERCC5 /// ERCC5 / Fold change vs veh, BIVM-ERCC5 /// ERCC5 / RFU, ILF3 / Fold change vs veh, ILF3 / RFU 11762660_at / Fold change /veh 11762660_at / RFU VCAN (11757783_s_at) / Fold change /veh VCAN (11757783_s_at) / RFU DDX43 (11728927_at) / Fold change /veh DDX43 (11728927_at) / RFU KRT8 (11758188_x_at) / Fold change /veh KRT8 (11758188_x_at) / RFU NKD1 (11759106_at) / Fold change /veh NKD1 (11759106_at) / RFU SRD5A1 (11742802_a_at) / Fold change /veh SRD5A1 (11742802_a_at) / RFU TPSAB1 /// TPSB2 (11721975_s_at) / Fold change /veh TPSAB1 /// TPSB2 (11721975_s_at) / RFU GSTM3 (11746129_a_at) / Fold change /veh GSTM3 (11746129_a_at) / RFU IL23R (11737362_x_at) / Fold change /veh IL23R (11737362_x_at) / RFU TMEM51 (11727254_a_at) / Fold change /veh TMEM51 (11727254_a_at) / RFU PIWIL2 (11732686_x_at) / Fold change /veh PIWIL2 (11732686_x_at) / RFU ORM1 (11744905_x_at) / Fold change /veh ORM1 (11744905_x_at) / RFU CCDC152 (11743942_at) / Fold change /veh CCDC152 (11743942_at) / RFU ECM1 (11717891_a_at) / Fold change /veh ECM1 (11717891_a_at) / RFU IL23R (11748794_a_at) / Fold change /veh IL23R (11748794_a_at) / RFU TNFAIP8L3 (11732012_x_at) / Fold change /veh TNFAIP8L3 (11732012_x_at) / RFU MBOAT4 (11741988_at) / Fold change /veh MBOAT4 (11741988_at) / RFU 11764193_at / Fold change /veh 11764193_at / RFU TMEM53 (11763286_at) / Fold change /veh TMEM53 (11763286_at) / RFU MAGEB2 (11727129_at) / Fold change /veh MAGEB2 (11727129_at) / RFU TMEM200A (11744735_a_at) / Fold change /veh TMEM200A (11744735_a_at) / RFU CCDC152 (11751479_a_at) / Fold change /veh CCDC152 (11751479_a_at) / RFU FAM211A (11726209_a_at) / Fold change /veh FAM211A (11726209_a_at) / RFU RGS16 (11746705_a_at) / Fold change /veh RGS16 (11746705_a_at) / RFU VCAN (11755009_s_at) / Fold change /veh VCAN (11755009_s_at) / RFU RHOB (11743442_s_at) / Fold change /veh RHOB (11743442_s_at) / RFU RGS16 (11720943_a_at) / Fold change /veh RGS16 (11720943_a_at) / RFU RGS16 (11720944_at) / Fold change /veh RGS16 (11720944_at) / RFU, VPS4B / Fold change vs veh, VPS4B / RFU, CREB1 / Fold change vs veh, CREB1 / RFU, DNAJC13 / Fold change vs veh, DNAJC13 / RFU, GNAQ / Fold change vs veh, GNAQ / RFU, CDK5R1 / Fold change vs veh, CDK5R1 / RFU, ZRANB3 / Fold change vs veh, ZRANB3 / RFU, CUL4A / Fold change vs veh, CUL4A / RFU, CCNY / Fold change vs veh, CCNY / RFU, UFL1 / Fold change vs veh, UFL1 / RFU, COG3 / Fold change vs veh, COG3 / RFU, DIAPH2 / Fold change vs veh, DIAPH2 / RFU, SKA2 / Fold change vs veh, SKA2 / RFU, AFF3 / Fold change vs veh, AFF3 / RFU, LMF1 / Fold change vs veh, LMF1 / RFU, IPO11 / Fold change vs veh, IPO11 / RFU, DFFB / Fold change vs veh, DFFB / RFU, FOXP1 / Fold change vs veh, FOXP1 / RFU, CARD8 / Fold change vs veh, CARD8 / RFU, STRN3 / Fold change vs veh, STRN3 / RFU, ADK / Fold change vs veh, ADK / RFU, RASSF2 / Fold change vs veh, RASSF2 / RFU, WIPF1 / Fold change vs veh, WIPF1 / RFU, LARP1B / Fold change vs veh, LARP1B / RFU, RASA1 / Fold change vs veh, RASA1 / RFU, RB1 / Fold change vs veh, RB1 / RFU, PPFIA1 / Fold change vs veh, PPFIA1 / RFU, MAT2A / Fold change vs veh, MAT2A / RFU, CCT5 / Fold change vs veh, CCT5 / RFU, WDR92 / Fold change vs veh, WDR92 / RFU, CUX1 / Fold change vs veh, CUX1 / RFU, TTC7A / Fold change vs veh, TTC7A / RFU, TMEM135 / Fold change vs veh, TMEM135 / RFU, DEPTOR / Fold change vs veh, DEPTOR / RFU, CPM / Fold change vs veh, CPM / RFU, DNAJB6 / Fold change vs veh, DNAJB6 / RFU, CACNA2D3 / Fold change vs veh, CACNA2D3 / RFU, DTX4 / Fold change vs veh, DTX4 / RFU, TFCP2 / Fold change vs veh, TFCP2 / RFU, GMCL1 /// GMCL1P1 / Fold change vs veh, GMCL1 /// GMCL1P1 / RFU, AEBP2 / Fold change vs veh, AEBP2 / RFU, SNHG1 /// SNORD22 /// SNORD25 /// SNORD26 /// SNORD27 /// SNORD28 /// SNORD29 /// SNORD31 / Fold change vs veh, SNHG1 /// SNORD22 /// SNORD25 /// SNORD26 /// SNORD27 /// SNORD28 /// SNORD29 /// SNORD31 / Fold change (Aza/veh), C12orf56 (ProbeSet 11735607_a_at) / Fold change (ACY-1035/veh), C12orf56 (ProbeSet 11735607_a_at) / Fold change (Aza/veh), FGFR1OP (ProbeSet 11751329_s_at) / Fold change (ACY-1035/veh), FGFR1OP (ProbeSet 11751329_s_at) / Fold change (Aza/veh), VPS36 (ProbeSet 11739960_a_at) / Fold change (ACY-1035/veh), VPS36 (ProbeSet 11739960_a_at) / RFU SYPL1 (11715823_x_at) / Fold change /veh SYPL1 (11715823_x_at) / RFU IGFBP7 (11715501_s_at) / Fold change /veh IGFBP7 (11715501_s_at) / RFU REEP3 (11722064_at) / Fold change /veh REEP3 (11722064_at) / RFU IGLL1 (11728026_x_at) / Fold change /veh IGLL1 (11728026_x_at): dose or concentration left out as unconfirmed
Conditions: ProbeSet 11739106_a_at; LIST B

`Nc1ncn([C@@H]2O[C@H](CO)[C@@H](O)[C@H]2O)c(=O)n1` [azacitidine] was tested, and the “Fold change vs veh, TMEM33” value was 0.88.
